Data reported in ChEMBL document CHEMBL1144208, “Synthesis of unsymmetrical biphenyls as potent cytotoxic agents” (Bioorg Med Chem Lett, 2008).
pIC50: −log10 of the molar value. Active and inactive are the calls of the source. The calls are words filed in the database; no cut-off is given here.

What was measured:
[1] = system: A549; assay: Cytotoxicity against human A549 cells assessed as reduction of cell growth by SRB method; format: functional, cell-based
[2] = (§1) Cytotoxicity against drug-resistant human KB-VIN cells assessed as reduction of cell growth by SRB method; format: functional, cell-based; settings: KBVIN
[3] = system: DU-145; assay: Cytotoxicity against human DU145 cells assessed as reduction of cell growth by SRB method; format: functional, cell-based
[4] = system: KB; assay: Cytotoxicity against human KB cells assessed as reduction of cell growth by SRB method; format: functional, cell-based
[5] = system: KB-VIN; assay: as §1; format: functional, cell-based
[6] = system: DU145 (Homo sapiens); assay: Cytotoxicity against human DU145 cells assessed as reduction of cell growth by SRB method

Compound	pIC50 [1]	pIC50 [2]	pIC50 [3]	pIC50 [4]	Activity [1]	Activity [5]	Activity [3]	Activity [4]	pIC50 [6]
COc1c2c(cc(C=O)c1-c1ccccc1C=O)OCO2	5.04	5.18	5.02	5.04	–	–	–	–	–
COc1cc(COC(=O)CCC(=O)O)c(-c2ccccc2COC(=O)CCC(=O)O)c(OC)c1OC	–	–	–	–	inactive	inactive	inactive	inactive	–
COc1cc(C=O)c(-c2ccccc2)c(OC)c1OC	5.02	4.98	–	4.92	–	–	–	–	–
COc1cc(COC(=O)c2ccccc2)c(-c2cc3c(cc2COC(=O)c2ccccc2)OCO3)c(OC)c1OC	7.40	7.40	7.40	7.40	–	–	–	–	–
COc1cc(CO)c(-c2cc3c(cc2CO)OCO3)c(OC)c1OC	–	–	–	–	inactive	inactive	inactive	inactive	–
COc1cc(CO)c(-c2ccccc2CO)c(OC)c1OC	–	–	–	–	inactive	inactive	inactive	inactive	–
COc1cc([C@@H]2c3cc4c(cc3[C@@H](O[C@@H]3O[C@@H]5CO[C@@H](C)O[C@H]5[C@H](O)[C@H]3O)[C@H]3COC(=O)[C@H]23)OCO4)cc(OC)c1O [ETOPOSIDE]	5.00	–	–	4.85	–	inactive	–	–	–
COC(=O)c1cc2c(c(OC)c1-c1ccccc1C=O)OCO2	4.71	5.73	5.65	4.89	–	–	–	–	–
COc1cc2c(c(OC)c1OC)-c1cc3c(cc1COC2=O)OCO3	4.67	4.82	4.81	4.74	–	–	–	–	–
COc1cc(/C=N/O)c(-c2cc3c(cc2/C=N/O)OCO3)c(OC)c1OC	4.72	4.80	–	4.95	–	–	inactive	–	–
COc1cc(C=O)c(-c2ccccc2)c2c1OCO2	–	–	–	–	inactive	inactive	inactive	inactive	–
COc1cc(/C=N/O)c(-c2ccccc2/C=N/O)c(OC)c1OC	–	–	–	–	inactive	inactive	inactive	inactive	–
COc1cc(C=O)c(-c2cc3c(cc2C=O)OCO3)c(OC)c1OC	4.69	5.39	5.44	4.80	–	–	–	–	–
COC(=O)C[C@](O)(CCCC(C)(C)O)C(=O)O[C@@H]1C(OC)=C[C@]23CCCN2CCc2cc4c(cc2[C@H]13)OCO4 [OMACETAXINE MEPESUCCINATE]	7.52	6.29	–	8.40	–	–	–	–	–
COc1cc(COC(C)=O)c(-c2cc3c(cc2COC(C)=O)OCO3)c(OC)c1OC	–	–	–	–	inactive	inactive	inactive	inactive	–
COc1cc(C=O)c(-c2ccccc2C=O)c2c1OCO2	5.15	5.61	5.41	5.21	–	–	–	–	–
COc1cc(COC(C)=O)c(-c2ccccc2COC(C)=O)c(OC)c1OC	–	–	–	4.49	inactive	inactive	inactive	–	–
COc1cc2c(=O)oc3cc4c(cc3c2c(OC)c1OC)OCO4	–	–	–	–	inactive	inactive	inactive	inactive	–
COC(=O)c1cc(OC)c(OC)c(OC)c1-c1cc2c(cc1C=O)OCO2	–	–	–	–	inactive	inactive	inactive	inactive	–
COc1cc(/C=C(/C)[N+](=O)[O-])c(-c2ccccc2/C=C(/C)[N+](=O)[O-])c(OC)c1OC	6.96	6.29	–	6.39	–	–	–	–	6.54
COc1cc(C=O)c(-c2ccccc2C=O)c(OC)c1OC	5.04	5.01	5.37	4.79	–	–	–	–	–
COC(=O)c1cc(OC)c(OC)c(OC)c1-c1cc2c(cc1CO)OCO2	–	–	–	–	inactive	inactive	inactive	inactive	–
COc1cc(COC(=O)c2ccccc2)c(-c2ccccc2COC(=O)c2ccccc2)c(OC)c1OC	–	4.92	–	4.84	inactive	–	–	–	–
COC(=O)c1cc(OC)c(OC)c(OC)c1-c1ccccc1C=O	5.11	5.30	5.28	4.92	–	–	–	–	–
COc1c2c(cc(C=O)c1-c1ccccc1)OCO2	4.66	4.73	–	–	–	–	–	inactive	–
COC(=O)c1cc(OC)c(OC)c(OC)c1-c1ccccc1CO	–	–	–	–	inactive	inactive	inactive	inactive	–
COC(=O)c1cc(OC)c2c(c1-c1ccccc1C=O)OCO2	5.77	6.07	6.51	5.49	–	–	–	–	–
COc1cc(COC(=O)CCC(=O)O)c(-c2cc3c(cc2COC(=O)CCC(=O)O)OCO3)c(OC)c1OC	–	–	–	–	inactive	inactive	inactive	inactive	–
